Measurements as given in patent US20080122428A1, “Optimized Determination of Voltage Changes Using a Voltage-Sensitive Dye” (Max-Planck-Gesellschaft zur Forderungder Wissenschaften e. …, priority 2003, published 2008).
Where “and” joins values, the source holds several entries; their conditions need not be identical. Identical values can stand only once.

What was measured:
[1] = tested on: Retzius cells (leech neurons); details: cited from earlier work; for shift of the excitation spectrum per membrane voltage: Kuhn and Fromherz, 2003
HEK293 cells [2] = experiment: Voltage sensitivity in HEK293 cells by extracellular electric field, laser line scans with one- or two-photon excitation; assay type: cell-based
Method: HEK293 cells (DSMZ GmbH, Braunschweig, Germany) were cultured using standard methods on glass coverslips (diameter 24 mm, Assistent, Glaswarenfabrik Karl Hecht KG, Sondheim, Germany). The coverslips were coated with fibronectin (No. 68885, Boehringer-Mannheim, Germany) in PBS (140 mM NaCl, 2.7 mM KCl, 1.5 mM KH2PO4, 6.5 mM Na2HPO4×2H2O) by incubation for 45 min in a 10 μg/ml fibronectin solution and a single subsequent wash with PBS. The cells were plated at densities of 15000 cells per coverslip and were used for up to three days after plating, while the cell density was still low. All measurements were done in a Ringer solution containing (in mM) 135 NaCl, 5.4 KCl, 1.0 MgCl2, 1.8 CaCl2 and 5.0 Hepes, adjusted to pH 7.2 with NaOH.
ANNINE-6 (FIG. 19a) was dissolved in a solution of 20% Pluronic F-127 DMSO (P-3000, Molecular Probes, Eugene, Oreg.) at a concentration of 0.5 mg/ml and sonicated for 15 min. The glass coverslip with the HEK293 cells was taken out of the culture well, exposed to the staining solution (dye stock solution diluted 1:100 into Ringer) for 5 min and finally washed with pure Ringer solution.
To change the voltage across the cell membrane we applied an extracellular electric field. This method (Gross et al., 1986) has a somewhat reduced voltage calibration accuracy but is much simpler than whole-cell recordings, for example, permitting the transfer of the recording chamber between microscope setups thereby allowing the exploration of a wider parameter range. Our custom-made chamber (FIG. 19b) consists of a 2.6 mm wide, and 30 mm long slit in a 0.5 mm thick PMMA (Plexiglas) plate. Two chlorided silver wires (diameter 0.127 mm, Cat. No. 7860, A-M Systems, INC., Everett, Wash.) for the application of the electrical field were fixed to the long edges of the channel with two-component epoxy resin glue (plus sofortfest, UHU, Bühl, Germany). This chamber was sealed on the bottom with a clean coverslip (24 mm×50 mm) attached with silicone grease (Bayer-silicone, Bayer AG, Leverkusen, Germany). The coverslip with the stained HEK293 cells was dried around the edges to get a watertight seal with silicone grease and then mounted cells down on the top side of the chamber. Two openings allowed the continuous perfusion (about 2 ml/min) with physiological saline using a gravity-fed perfusion system.
The voltage stimuli were generated by an arbitrary waveform generator (model 395, wavetek, Ismaning, Germany) and amplified by a custom-built push-pull circuit (using two operational amplifiers, OPA547, Texas Instruments Inc., Texas, USA, FIG. 19c). To avoid electrolysis at the electrodes and ionophoresis of cell-surface components all applied voltage waveforms were purely AC. Short pulses were used to minimize heating (FIG. 19d). The application of the pulse protocol was synchronized to the start of line scan acquisition.
For one-photon excitation we used laser scanning microscopes (Zeiss LSM 510 NLO and Leica TCS SP2) with Ar-ion laser excitation (458 nm, 488 nm, or 514 nm). We used laser illumination instead of, for example, Xe arc-lamps because narrow spectral width and high intensities are needed to obtain sufficient excitation of the dye at the spectral edge. The excitation light at the Zeiss microscope was coupled in via the main dichroic beam splitters (HFT 458/514, reflecting the 458 nm and 514 nm laser lines or HFT KP 700/488, a combined 700 nm short pass and 488 nm reflector). The emitted light was filtered by a long-pass filter (LP560). The Leica microscope uses an acousto-optical main beam splitter and fluorescence was collected in the range of 520 nm to 800 nm. The maximal excitation intensities at the sample were for the Zeiss (Leica) microscope: 1.3 mW (1.5 mW) at 514 nm, 200 μW (250 μW) at 488 nm and 28 μW (35 μW) at 458 nm. The pinhole was completely opened up (8.5 airy units) to collect as much light as possible. […]

HEK293 cells [3] = experiment: Tight-seal whole-cell voltage-clamp recordings of HEK293 cells, sensitivity at 514 nm; assay type: cell-based; details: four cells, voltage jumps +/−25, +/−50, +/−75 mV
Method: Whole-cell tight-seal voltage-clamp recordings on HEK293 cells were preformed using pipettes with a resistance of around 6 MOhm and an epc9 amplifier (HEKA, Göttingen, Germany).
To test our assumption about the extracellular stimulation the sensitivity at 514 nm was tested by controlling the membrane voltage directly using tight-seal whole-cell recordings of HEK293 cells (FIG. 22). The mean sensitivity measured in four cells using voltage jumps of +/−25, +/−50 and +/−75 mV is −0.37±0.02%/mV, in agreement with the results achieved by the external electric field method.

HEK293 cells [4] = experiment: Example 4: HEK293 cells stained by bath application, alternating external electric fields, 1 kHz line scans; assay type: cell-based
Description: ANNINE-6 is a new, completely anellated hemicyanine dye. […] Several biological preparations were used for testing. First, HEK293 cells were stained by bath application of the dye. Alternating external electric fields generated by applying voltages between two Ag/AgCl-wires in a closed chamber (1). To achieve the high light intensities, which are necessary to excite the dye at the very red edge of the excitation spectrum, we used laser scanning microscopes with Ar-Ion Laser for one-photon excitation (488 nm, 514 nm) and Ti:Sapphire Laser for two-photon excitation (976 nm). The fluorescence changes measured with 1 kHz line scans followed the applied voltage, which was alternated every 10 ms, without discernible delay. We found relative fluorescence increases of more that 60%/100 mV for hyperpolarizing membrane potential changes and decreases of more than 40%/100 mV for depolarizing membrane potential changes at 514 nm excitation wavelength. The asymmetry of the fluorescence change is expected given the spectral shape and a pure electrochromic spectral shift. We found changes of +40%/100 mV and −30%/100 mV both for one-photon excitation at 488 nm and two-photon excitation at 976 nm. Preliminary measurements from cultured hippocampal slices using a soluble variant of ANNINE-6 show fast fluorescence changes of up to 8% upon stimulation of the Schaffer collaterals in CA1. • (1) D. Gross, L. M. Loew and W. Webb. Biophys. J., 50: 339-348, 1986.

[5] = Maximal theoretical sensitivity for excitation in the Boltzmann tail; details: from shift of 1.6 cm^−1/mV
Description: A common approximation used for spectral shapes is the log-normal function (Siano and Metzler, 1969), which would imply an ever increasing, in fact, diverging sensitivity toward longer wavelengths and the vanishing of excitation above a wavelength of 591 nm. However, simple considerations predict a tail in the absorption spectrum F that follows a Boltzmann distribution (Hinshelwood, 1940)
because an electronic transition between the ground and the excited state with the energy difference h ν00c (h Planck constant, ν00 wavenumber of the 00 transition, c light velocity) and an excitation energy h νc ( ν wavenumber of excitation), which is assumed to be below h ν00c, requires additional vibrational energy E=h ν00c−h νc to reach the lowest excited state, in analogy to anti-Stokes lines in scattering theory. […]
for excitation in the Boltzmann tail (Δμ is the intramolecular charge displacement upon electronic excitation, d is the membrane thickness, θ is the angle between charge displacement and membrane normal). […] For comparison: the highest measured sensitivity value was −0.52±0.05%/mV (with 2-photon excitation at 1040 nm, corresponding to 520 nm). […]

In the case of `CCCCCN(CCCCC)c1ccc(/C=C/C=C/c2cc[n+](CCCCS(=O)(=O)[O-])cc2)cc1` [RH-421, reference compound], the “shift of the excitation spectrum per membrane voltage” value (shortened to “shift … per membrane voltage”) [1] is listed as 0.5 cm^−1/mV.
For `CCCCN(CCCC)c1ccc2c(ccc3c2ccc2c4cc[n+](CCCCS(=O)(=O)[O-])cc4ccc23)c1` [ANNINE-5], the “shift … per membrane voltage” value [1] is listed as 1.3 cm^−1/mV.
For `CCCCN(CCCC)c1ccc2cc(C=Cc3cc[n+](CCCCS(=O)(=O)[O-])cc3)ccc2c1` [di-4-ANEPBS, reference compound], the “shift … per membrane voltage” value [1] is given as 0.9 cm^−1/mV.
In the case of `CCCCN(CCCC)c1ccc2c(ccc3c2ccc2c4ccc5c[n+](CCCCS(=O)(=O)[O-])ccc5c4ccc32)c1` [ANNINE-6], the “fluorescence change for large voltage swing” value (HEK293 cells [2]; 100 mV depolarization, 514 nm) was −28%, the “fluorescence change for large voltage swing” value (HEK293 cells [2]; 100 mV depolarization, 1040 nm) was −40% and the “fluorescence change for large voltage swing” value (HEK293 cells [2]; 100 mV hyperpolarization, 514 nm) was 50%. The “fluorescence change for large voltage swing” value (HEK293 cells [2]; 100 mV hyperpolarization, 1040 nm) was 70%, the sensitivity (HEK293 cells [2]; 515 nm, 1-photon, dye incorporated inside the cells (as expected)) was 0.37 %/mV and the sensitivity (HEK293 cells [2]; 515 nm, 2-photon, dye incorporated inside the cells (as expected)) was 0.52 %/mV. The “2PE sensitivity higher than 1PE sensitivity at half the wavelength” value (HEK293 cells [2]; 976 nm versus 488 nm, same cell) was “about 20%”, the “sensitivity at end of repeated line scans” value (HEK293 cells [2]; after 900 line scans at 1040 nm over a period of over 2 h) was −0.58±0.02 %/mV and the “slope sensitivity at the resting potential, single cell” value (from here on “slope sensitivity”) (HEK293 cells [2]; cell of FIG. 21a, one-photon 458 nm) was −0.16 %/mV. For the same compound, the “slope sensitivity” value (HEK293 cells [2]; cell of FIG. 21a, one-photon 488 nm) was −0.26 %/mV, the “slope sensitivity” value (HEK293 cells [2]; cell of FIG. 21a, one-photon 514 nm) was −0.37 %/mV and the “slope sensitivity” value (HEK293 cells [2]; cell of FIG. 23, two-photon 960 nm) was −0.35 %/mV. The “slope sensitivity” value (HEK293 cells [2]; cell of FIG. 23, two-photon 980 nm) was −0.41 %/mV, the “slope sensitivity” value (HEK293 cells [2]; cell of FIG. 23, two-photon 1000 nm) was −0.49 %/mV and the “slope sensitivity” value (HEK293 cells [2]; cell of FIG. 23, two-photon 1020 nm) was −0.54 %/mV. The “slope sensitivity” value (HEK293 cells [2]; cell of FIG. 23, two-photon 1040 nm) was −0.59 %/mV, the sensitivity (HEK293 cells [2]; excitation wavelength 515 nm, 1-photon, dye at the outer side of the membrane) was −0.37 %/mV and the “small-signal fractional fluorescence change (mean sensitivity)” value (HEK293 cells [2]; one-photon excitation 488 nm, four cells) was −0.28 %/mV and −0.28±0.03 %/mV. The “small-signal fractional fluorescence change (mean sensitivity)” value (HEK293 cells [2]; one-photon excitation 514 nm, four cells) was −0.35 %/mV and −0.35±0.03 %/mV, the “sensitivity at begin of repeated line scans” value (HEK293 cells [2]; single cell, excitation at 1040 nm) was −0.59±0.01 %/mV and the “small-signal fractional fluorescence change (mean sensitivity)” value (HEK293 cells [2]; two-photon excitation 960 nm, 4 cells) was −0.29 %/mV and −0.29±0.05 %/mV. For the same compound, the mean sensitivity (HEK293 cells [2]; two-photon excitation 980 nm, 4 cells) was −0.35±0.05 %/mV, the “small-signal fractional fluorescence change (mean sensitivity)” value (HEK293 cells [2]; two-photon excitation 1000 nm, 4 cells) was −0.43 %/mV and −0.43±0.05 %/mV and the mean sensitivity (HEK293 cells [2]; two-photon excitation 1020 nm, 4 cells) was −0.47±0.06 %/mV. The “small-signal fractional fluorescence change (mean sensitivity)” value (HEK293 cells [2]; two-photon excitation 1040 nm, 4 cells) was −0.52 %/mV and −0.52±0.06 %/mV and −0.52±0.05 %/mV, the “mean sensitivity with direct control of membrane voltage” value (HEK293 cells [3]) was −0.37±0.02 %/mV and the relative fluorescence decrease (HEK293 cells [4]; depolarizing membrane potential changes, 514 nm) was “more than 40 %/100 mV”. The relative fluorescence increase (HEK293 cells [4]; hyperpolarizing membrane potential changes, 514 nm) was greater than 60 %/100 mV, the “relative fluorescence change, negative” value (HEK293 cells [4]; one-photon excitation 488 nm) was −30 %/100 mV and the “relative fluorescence change, positive” value (HEK293 cells [4]; one-photon excitation 488 nm) was “+40 %/100 mV”. The “relative fluorescence change, negative” value (HEK293 cells [4]; two-photon excitation 976 nm) was −30 %/100 mV, the “relative fluorescence change, positive” value (HEK293 cells [4]; two-photon excitation 976 nm) was “+40 %/100 mV” and the “Boltzmann-tail sensitivity (theoretical limit)” value [5] was −0.77 %/mV. The “sensitivity in Leech” value ([1]; 488 nm, published (Kuhn and Fromherz, 2003)) was −0.29 %/mV and the “shift … per membrane voltage” value [1] was 1.6 cm^−1/mV.
